Experiment: gradient 5% acetonitrile 3 min, to 50% in 2 min, to 85% in 15 min, held 3 min, 100 µL/min
Conditions: column: Zorbax Extend-C18 2.1 x 50 mm; eluents: water / acetonitrile, 0.1% formic acid
How it was run: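 Using water and acetonitrile that each contained 0.1% formic acid, mixtures of ~100 pure standards were separated at 100 μL/min on a Zorbax Extend-C18 column (2.1 × 50 mm, 1.8 μm). The HPLC fed a quadrupole time-of-flight mass spectrometer working in positive and negative ionization mode, with dead and dwell volumes of 40 μL and 900 μL. Data were acquired over 3 months. Retention time was read from computationally picked adduct peaks after manual inspection of each.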

Going from `O=C(c1ccccc1)N1CCC(CCNS(=O)(=O)c2ccc(Br)cc2)CC1` to `CCC(=O)N1CCc2cc(CNS(=O)(=O)c3ccc(F)cc3)ccc21`, the RP-LC retention time falls from 909 s to 838 s.

First: O=C(Cn1cnc2nc(N3CCC(C(=O)NC4CC4)CC3)sc2c1=O)Nc1ccc2c(c1)OCO2
Second: O=C(Nc1c(-c2cccc(F)c2)nc2sc(N3CCCCC3)nn12)C1CC1
The RP-LC retention time of the first is lower: 637 s for the first, 897 s for the second.

Compared with `CCOc1cc(CNC(=O)c2nc(N3CCOCC3)c3ccccc3n2)ccc1OC`, `CCn1nccc1C(=O)Nc1cc(-c2cc3c(OC)cccc3n2CC)[nH]n1` is higher in RP-LC retention time: 660 s for the first, 879 s for the second.

Going from `O=C(Cn1ncc2c(N3CCN(c4ccccn4)CC3)ncnc21)Nc1ccccc1C(F)(F)F` to `O=C(Cn1ncc2c3ccccc3n(Cc3ccccc3)c2c1=O)N1CCN(c2ccccn2)CC1`, the RP-LC retention time rises from 610 s to 693 s.

Compared with `O=C(CCc1c(-c2ccccc2)nc2ccccn12)Nc1cccc(Cl)c1`, `O=C(Nc1c(-c2ccc(F)cc2)nc2ccccn12)c1ccc(Cl)c([N+](=O)[O-])c1` is higher in RP-LC retention time: 692 s for the first, 733 s for the second.

First: CCS(=O)(=O)Nc1cccc(C(=C2CCCCC2)c2cnc[nH]2)c1
Second: CCS(=O)(=O)N1CC(=O)N(c2ccc(C)cc2C)C(C)(C(=O)NCc2ccc(F)cc2)C1 (configuration not stated)
The RP-LC retention time of the first is lower: 738 s for the first, 857 s for the second.

First: O=C(NC[C@H](O)CO)c1ccncc1Nc1ccc(I)cc1F
Second: CSc1ncccc1C(=O)Nc1ccc(CC(=O)NC(C)(C)CO)cc1
The RP-LC retention time of the first is higher: 671 s for the first, 633 s for the second.

First: CN(CCOc1ccc(CC2SC(=O)NC2=O)cc1)c1ccccn1 (configuration not stated)
Second: CCOc1ccc(NC(=O)Cn2nc3c4sc(N(C)C)nc4ncn3c2=O)cc1
The RP-LC retention time of the first is lower: 628 s for the first, 692 s for the second.

Compared with `O=C(CN1CCCc2nc(C3CC3)ncc2C1=O)NCCN1CCOCC1`, `O=C(C1CCN(S(=O)(=O)c2cc(-c3noc(C4CC4)n3)cs2)CC1)N1CCOCC1` is higher in RP-LC retention time: 554 s for the first, 793 s for the second.

Going from `Cc1nc2cc(N3CCCC(C(=O)NC4CCCCC4)C3)cnc2nc1C` (configuration not stated) to `Cc1c(Cl)cccc1NC(=O)C1CCN(c2cc(-n3ccnc3C)ncn2)CC1`, the RP-LC retention time falls from 723 s to 581 s.

Compared with `CCCCN(C)C(=O)c1ccc2c(c1)NC(=O)C(CC(C)C)N2` (configuration not stated), `Cc1ccc(C(=O)N2CCC(COc3ccc(C(=O)NC(C)C)cc3)CC2)c(C)c1` is higher in RP-LC retention time: 581 s for the first, 931 s for the second.

Compared with `COc1ccc(Cn2c(C)c(CNCc3ccco3)c(C(=O)O)c2C)cc1`, `COc1cccc(-c2noc(Cn3nc(-c4ccccc4)ccc3=O)n2)c1` is higher in RP-LC retention time: 673 s for the first, 998 s for the second.

Compared with `Cc1ccccc1Nc1c(-c2cccc(Cl)c2)nc2cnccn12`, `Cc1c(-c2noc(-c3cccc(F)c3)n2)nnn1Cc1ccccc1` is higher in RP-LC retention time: 1000 s for the first, 1080 s for the second.

First: Cc1ccccc1-c1nc(C2CCN(S(=O)(=O)c3ccccc3F)CC2)no1
Second: O=C(Nc1ccccc1F)N1CCCC1c1nc(-c2ccccc2)no1 (configuration not stated)
The RP-LC retention time of the first is higher: 1150 s for the first, 940 s for the second.

Compared with `CCS(=O)(=O)Nc1cc(-c2nnc(C)o2)sc1C`, `Cc1noc(-c2cccn2C)n1` is higher in RP-LC retention time: 738 s for the first, 744 s for the second.

First: O=C(Cn1cccc(S(=O)(=O)N2CCOCC2)c1=O)N1CCc2ccccc21
Second: Cc1cc(N2CCN(C(=O)c3ccco3)CC2)nc(N2CCCCC2)n1
The RP-LC retention time of the first is higher: 667 s for the first, 626 s for the second.

Compared with `COC(=O)c1cc(OC)c(OC)cc1NC(=O)NCCc1c[nH]c2ccccc12`, `CC(C)Nc1nc(-c2ccc([N+](=O)[O-])cc2)nc2ccccc12` is lower in RP-LC retention time: 876 s for the first, 751 s for the second.

First: CC(C)Oc1ccc(CN2CC[C@]3(CO)CN(Cc4ccccc4)C[C@@H]3C2)cc1
Second: Cn1nc(-c2nc(C3CC3)no2)c2c1CCN(C(=O)c1cccnc1)C2
The RP-LC retention time of the first is higher: 718 s for the first, 642 s for the second.

`CCCn1nnc(NCc2ccc(-c3ccc(Cl)cc3Cl)o2)n1` showed an RP-LC retention time of 1200 s.
